ChEMBL document CHEMBL1275551, “Identification of the genetic basis for clinical menadione-auxotrophic small-colony variant isolates of Staphylococcus aureus” (Antimicrob Agents Chemother, 2008)

Experiments:
Type in all cases: functional, organism-based
[1] = tested on: Staphylococcus aureus; assay: Antibacterial activity against Staphylococcus aureus isolate OM1a by Etest method
[2] = tested on: Staphylococcus aureus; assay: Antibacterial activity against phenotypic revertant Staphylococcus aureus OM1b:F2 harboring G698C Val233Ala compensatory mutation in menB gene by Etest method
[3] = tested on: Staphylococcus aureus; assay: Antibacterial activity against Staphylococcus aureus isolate A22616/5 by Etest method
[4] = tested on: Staphylococcus aureus; assay: Antibacterial activity against phenotypic revertant Staphylococcus aureus OM1b:F8 harboring 694-702 nucleotide deletion in menB gene by Etest method
[5] = tested on: Staphylococcus aureus; assay: Antibacterial activity against wild type Staphylococcus aureus OM1b:F5 phenotypic revertant by Etest method
[6] = tested on: Staphylococcus aureus; assay: Antibacterial activity against small-colony variant Staphylococcus aureus isolate A22616/5 harboring 55-63 nucleotide deletion in menB gene by Etest method
[7] = tested on: Staphylococcus aureus; assay: Antibacterial activity against phenotypic revertant Staphylococcus aureus OM1b:F9 harboring G698T/Gly233Val and compensatory A776T/Lys259Ile mutant menB gene by Etest method
[8] = tested on: Staphylococcus aureus; assay: Antibacterial activity against small-colony variant Staphylococcus aureus isolate OM299/1 harboring -1 frame shift mutation in 687 nucleotide of menB gene by Etest method
[9] = tested on: Staphylococcus aureus; assay: Antibacterial activity against small-colony variant Staphylococcus aureus isolate OM1b harboring menB G698T Gly233Val mutant gene by Etest method
[10] = tested on: Staphylococcus aureus; assay: Antibacterial activity against Staphylococcus aureus isolate OM299/1 by Etest method

Sequence: GENTAMICIN
- MIC [1]: 0.125 µg/mL
- MIC [2]: 0.125 µg/mL
- MIC [3]: 0.19 µg/mL
- MIC [4]: 0.125 µg/mL
- MIC [5]: 0.125 µg/mL
- MIC [6]: 12 µg/mL
- MIC [7]: 0.125 µg/mL
- MIC [8]: 16 µg/mL
- MIC [9]: 8 µg/mL
- MIC [10]: 0.32 µg/mL
